The source of these data is patent publication US20200000091A1, “Microbe Proliferation Inhibitor, Method for Inhibiting Proliferation of Microbes, UV Resistance-Improving Agent, Method for Improving UV Resistance, Artificial Protein Formation Body and method for Manufacturing Same, Artificial Protein Solution, and Coloring Agent” (Keio University, priority 2017, published 2020).

The test system of the test is Escherichia coli wild strain (W3110). The test is described as follows: Growth of Escherichia coli in M9 medium, absorbance (OD600) measured every hour. Format: cell-based. The note with it: 1 mM xanthurenic acid in M9 medium (Tris-HCl buffer pH 8), compared with Comparative Example 1 (no xanthurenic acid), FIG. 1. On the procedure:
An Escherichia coli wild strain (W3110) was cultured in M9 medium (7 mg/ml K2HPO4, 3 mg/ml KH2PO4, 0.5 mg/ml NaCl, 1 mg/ml NH4Cl, 1 mg/ml glucose, 1 mM MgSO4.7H2O, 14.7 μg/ml CaCl2)) containing 10 μg/ml thiamine. In preparing the medium, a Tris-HCl buffer solution (pH 8) was used instead of water in consideration of the solubility of xanthurenic acid. The obtained overnight cultures were diluted into 0.8% with 20 ml of a fresh medium containing 1 mM xanthurenic acid (Wako Pure Chemical Industries, Ltd.) to obtain a sample solution. Absorbance (OD600) was measured as to this sample solution every hour by using Nano Photometer (Implen GmbH).
The preparation and measurement of a sample solution were performed in the same way as in Example 1 except that the overnight cultures were diluted with a fresh medium containing no xanthurenic acid.

On to `O=C(O)c1cc(O)c2cccc(O)c2n1` [Example 1, xanthurenic acid], for which the “absorbance (OD600); proliferation of Escherichia coli” value is reported as “proliferation of Escherichia coli was inhibited”.
